According to patent publication US11801240B2, “Combination therapies and uses thereof” (Tesaro, Inc., priority 2017, dated 2023):

How the values were obtained:
[1] = system: A2780 (BRCA wt, HRD−) ovarian cancer cell line-derived xenograft; experiment: Niraparib and bevacizumab combination in ovarian cancer cell line-derived xenograft model A2780; assay type: in vivo, mouse; conditions: A2780, CB-17 SCID female mice, 2 weeks; niraparib 60 mg/kg po qd, bevacizumab 10 mg/kg iv qw; end of treatment
[2] = system: A2780 (BRCA wt, HRD−) ovarian cancer cell line-derived xenograft; experiment: Niraparib and cabozantinib combination in ovarian cancer cell line-derived xenograft model A2780; assay type: in vivo, mouse; conditions: A2780, Balb/C nude female mice, 2 weeks; niraparib 60 mg/kg po qd, cabozantinib 30 mg/kg po qd; end of treatment
[3] = system: ovarian PDX model OVC134; experiment: Niraparib and cabozantinib combination in ovarian PDX model OVC134; assay type: in vivo, mouse
[4] = system: TNBC PDX model MAXF MX1
[5] = system: TNBC PDX model MAXF 857; experiment: Niraparib+bevacizumab and niraparib+cabozantinib combinations in TNBC PDX model MAXF 857; assay type: in vivo, mouse; conditions: for Tumor growth inhibition (TGI): MAXF 857, NMRI nude female mice, 5 weeks, bevacizumab 20 mg/kg iv qw, cabozantinib 30 mg/kg po qd, end of treatment

Molecule	Tumor growth inhibition (TGI) [1] [%]	Tumor growth inhibition (TGI) [2] [%]	Sensitivity of the model to monotherapy (anti-tumor activity) ([3]; ovarian PDX model OVC134, 7 weeks)	Tumor growth inhibition (TGI) ([4]; MAXF MX1, NMRI nude female mice, 5 weeks, niraparib 50 mg/kg po qd, end of treatment) [%]	Sensitivity of the model to monotherapy (anti-tumor activity) ([4]; TNBC PDX model MAXF MX1, 5 weeks)	Tumor growth inhibition (TGI) ([3]; OVC134, Balb/C nude female mice, 7 weeks, cabozantinib 30 mg/kg po qd, end of treatment) [%]	Tumor growth inhibition (TGI) [5] [%]	Sensitivity of the model to monotherapy (anti-tumor activity) ([5]; TNBC PDX model MAXF 857, 5 weeks)
NC(=O)c1cccc2cn(-c3ccc([C@@H]4CCCNC4)cc3)nc12 [niraparib, (3S)-3-[4-{7-(aminocarbonyl)-2H-indazol-2-yl}phenyl]piperidine]	< 40	18	very sensitive	99	very sensitive	–	–	–
COc1cc2nccc(Oc3ccc(NC(=O)C4(C(=O)Nc5ccc(F)cc5)CC4)cc3)c2cc1OC [cabozantinib]	–	51	–	–	–	83	65	–
bevacizumab: recombinant humanized monoclonal antibody that can block angiogenesis and inhibit vascular endothelial growth factor A (VEGF-A)	55	–	–	–	–	–	76	very sensitive
